Results as given in patent publication US20190343828A1, “CAMPTOTHECIN PEPTIDE CONJUGATES” (SEATTLE GENETICS, INC., priority 2018, published 2019).

How the values were obtained:
[1] = tested on: acute myeloid leukemia cells (MOLM13); test: In vitro cytotoxicity, CellTiter-Glo 96 h, MOLM13; conditions: Homo sapiens, MOLM-13, read-out: Cytotoxic potency as free drug, IC50, MOLM13
Procedure: (§1) In vitro potency was assessed on multiple cancer cell lines. All cell lines were authenticated by STR profiling at IDEXX Bioresearch and cultured for no more than 2 months after resuscitation. Cells cultured in log-phase growth were seeded for 24 hours in 96-well plates containing 150 μl RPMI 1640 supplemented with 20% FBS. Serial dilutions of antibody-drug conjugates in cell culture media were prepared at 4× working concentrations, and 50 μl of each dilution was added to the 96-well plates. Following addition of test articles, cells were incubated with test articles for 4 days at 37° C. After 96 hours, growth inhibition was assessed by CellTiter-Glo® (Promega, Madison, Wis.) and luminescence was measured on a plate reader.
(§2) Cell viability was determined by CellTiter-Glo staining after 96 h exposure to ADC.

[2] = tested on: pancreatic cancer cells (BxPC3); test: In vitro cytotoxicity, CellTiter-Glo 96 h, BxPC3; conditions: Homo sapiens, BXPC-3, read-out: Cytotoxic potency (IC50 class), BxPC3
Procedure: as §1, §2

[3] = tested on: Burkitt's lymphoma cells (Ramos); test: In vitro cytotoxicity, CellTiter-Glo 96 h, Ramos; conditions: Homo sapiens, read-out: Cytotoxic potency as free drug, IC50, Ramos
Procedure: as §1, §2

[4] = tested on: renal carcinoma cells (786-O); test: In vitro cytotoxicity, CellTiter-Glo 96 h, 786-O; conditions: Homo sapiens, 786-0, read-out: Cytotoxic potency (IC50 class), 786-O
Procedure: as §1, §2

[5] = tested on: B-lymphocyte cancer cells (U266); test: In vitro cytotoxicity, CellTiter-Glo 96 h, U266; conditions: Homo sapiens, U-266, read-out: Cytotoxic potency as free drug, IC50, U266
[6] = tested on: melanoma cells (SK-MEL-5); test: In vitro cytotoxicity, CellTiter-Glo 96 h, SK-MEL-5; conditions: Homo sapiens, SK-MEL-5, read-out: Cytotoxic potency as free drug, IC50, SK-MEL-5
Procedure: as §1
(§3) Cell viability was determined by CellTiter-Glo staining after 96 h exposure to ADC. […] Ag1 is an antibody targeting a ubiquitous and readily internalizable antigen on cancer cells, Ag2 is cAC10 antibody targeting CD30(+) cancer cells, Ag3 is h1F6 antibody targeting CD70(+) cancer cells, Ag4 is hMEM102 antibody targeting CD48(+) cancer cells, Ag5 is h20F3 antibody targeting NTB-A expressing cancer cells, and h00 is a non-binding control antibody.

[7] = tested on: acute promyelocytic leukemia cells (HL-60); test: In vitro cytotoxicity, CellTiter-Glo 96 h, HL-60; conditions: Homo sapiens, HL-60, read-out: Cytotoxic potency (IC50 class), HL-60
Procedure: as §1, §3

[8] = tested on: multiple myeloma cells (MM.1R); test: In vitro cytotoxicity, CellTiter-Glo 96 h, MM.1R; conditions: read-out: Cytotoxic potency (IC50 class), MM.1R
Procedure: as §1, §3

[9] = tested on: Hodgkin's lymphoma cells (L540cy); test: In vitro cytotoxicity, CellTiter-Glo 96 h, L540cy; conditions: read-out: Cytotoxic potency (IC50 class), L540cy
[10] = tested on: multiple drug resistant acute promyelocytic leukemia cells (HL-60/RV); test: In vitro cytotoxicity, CellTiter-Glo 96 h, HL60/RV; conditions: Homo sapiens, HL-60, read-out: Cytotoxic potency (IC50 class), HL60/RV
[11] = tested on: B-lymphocyte cancer cells (SU-DHL-4); test: In vitro cytotoxicity, CellTiter-Glo 96 h, SU-DHL-4; conditions: Homo sapiens, SU-DHL-4, read-out: Cytotoxic potency as free drug, IC50, SU-DHL-4

| Compound | IC50 [1] | IC50 [2] | IC50 [3] | IC50 [4] | IC50 [5] | IC50 [6] | IC50 [7] | IC50 [8] | IC50 [9] | IC50 [10] | IC50 [11] |
| --- | --- | --- | --- | --- | --- | --- | --- | --- | --- | --- | --- |
| CCCCNCc1c2c(nc3cc4c(cc13)OCO4)-c1cc3c(c(=O)n1C2)COC(=O)[C@]3(O)CC [Compound 5k] | 1 to 10 nM | 1 to 10 nM | 1 to 10 nM | 1 to 10 nM | 1 to 10 nM | 1 to 10 nM | 10 to 100 nM | 1 to 10 nM | 1 to 10 nM | 1 to 10 nM | 1 to 10 nM |
| CC[C@@]1(O)C(=O)OCc2c1cc1n(c2=O)Cc2c-1nc1cc3c(cc1c2CNCc1ccc(OC)cc1)OCO3 [Compound 5l] | 1 to 10 nM | 10 to 100 nM | 1 to 10 nM | 10 to 100 nM | 10 to 100 nM | 10 to 100 nM | 10 to 100 nM | 1 to 10 nM | 10 to 100 nM | 10 to 100 nM | 1 to 10 nM |
| CC[C@@]1(O)C(=O)OCc2c1cc1n(c2=O)Cc2c-1nc1cc3c(cc1c2CNCCC(c1ccccc1)c1ccccc1)OCO3 [Compound 5o] | 10 to 100 nM | 10 to 100 nM | 1 to 10 nM | 10 to 100 nM | 10 to 100 nM | 10 to 100 nM | 100 to 1000 nM | 10 to 100 nM | 1 to 10 nM | 10 to 100 nM | 10 to 100 nM |
| CC[C@@]1(O)C(=O)OCc2c1cc1n(c2=O)Cc2c-1nc1cc3c(cc1c2CN(CCO)CCO)OCO3 [Compound 5p] | 10 to 100 nM | 10 to 100 nM | 1 to 10 nM | 10 to 100 nM | 10 to 100 nM | 10 to 100 nM | 100 to 1000 nM | 1 to 10 nM | 10 to 100 nM | 100 to 1000 nM | 10 to 100 nM |
| CC[C@@]1(O)C(=O)OCc2c1cc1n(c2=O)Cc2c-1nc1cc3c(cc1c2CN(CCN)CCO)OCO3 [Compound 5q] | 10 to 100 nM | 100 to 1000 nM | 10 to 100 nM | 10 to 100 nM | 10 to 100 nM | 100 to 1000 nM | 100 to 1000 nM | 10 to 100 nM | 10 to 100 nM | 100 to 1000 nM | 10 to 100 nM |
| CC[C@@]1(O)C(=O)OCc2c1cc1n(c2=O)Cc2c-1nc1cc3c(cc1c2CNc1ccc(F)cc1)OCO3 [Compound 5r] | 10 to 100 nM | 1 to 10 nM | 1 to 10 nM | 1 to 10 nM | 1 to 10 nM | 1 to 10 nM | 10 to 100 nM | 1 to 10 nM | 1 to 10 nM | 10 to 100 nM | 1 to 10 nM |
| CC[C@@]1(O)C(=O)OCc2c1cc1n(c2=O)Cc2c-1nc1cc3c(cc1c2CNC12CC4CC(CC(C4)C1)C2)OCO3 [Compound 5s] | 10 to 100 nM | 10 to 100 nM | 10 to 100 nM | 10 to 100 nM | 10 to 100 nM | 10 to 100 nM | 100 to 1000 nM | 10 to 100 nM | 10 to 100 nM | 10 to 100 nM | 10 to 100 nM |
| CC[C@@]1(O)C(=O)OCc2c1cc1n(c2=O)Cc2c-1nc1cc3c(cc1c2CN(C)CCN(C)C)OCO3 [Compound 5t] | 10 to 100 nM | 10 to 100 nM | 1 to 10 nM | 1 to 10 nM | 10 to 100 nM | 10 to 100 nM | 100 to 1000 nM | 1 to 10 nM | 1 to 10 nM | 10 to 100 nM | 1 to 10 nM |
| CC[C@@]1(O)C(=O)OCc2c1cc1n(c2=O)Cc2c-1nc1cc3c(cc1c2CNCC1CCNCC1)OCO3 [Compound 5u] | 10 to 100 nM | 10 to 100 nM | 1 to 10 nM | 10 to 100 nM | 10 to 100 nM | 10 to 100 nM | 100 to 1000 nM | 10 to 100 nM | 10 to 100 nM | 100 to 1000 nM | 10 to 100 nM |
| CC[C@@]1(O)C(=O)OCc2c1cc1n(c2=O)Cc2c-1nc1cc3c(cc1c2CNCCN(C)CCO)OCO3 [Compound 5w] | 10 to 100 nM | 10 to 100 nM | 1 to 10 nM | 10 to 100 nM | 10 to 100 nM | 10 to 100 nM | 100 to 1000 nM | 10 to 100 nM | 10 to 100 nM | 10 to 100 nM | 10 to 100 nM |
| CC[C@@]1(O)C(=O)OCc2c1cc1n(c2=O)Cc2c-1nc1cc3c(cc1c2CN(C)CCNC)OCO3 [Compound 5x] | 10 to 100 nM | 100 to 1000 nM | 10 to 100 nM | 10 to 100 nM | 10 to 100 nM | 10 to 100 nM | 100 to 1000 nM | 10 to 100 nM | 10 to 100 nM | 100 to 1000 nM | 10 to 100 nM |
| CC[C@@]1(O)C(=O)OCc2c1cc1n(c2=O)Cc2c-1nc1cc3c(cc1c2CNCCOCCOCCN)OCO3 [Compound 5y] | 1 to 10 nM | 1 to 10 nM | 0.1 to 1 nM | 1 to 10 nM | 1 to 10 nM | 1 to 10 nM | 10 to 100 nM | 1 to 10 nM | 1 to 10 nM | 10 to 100 nM | 1 to 10 nM |
| CC[C@@]1(O)C(=O)OCc2c1cc1n(c2=O)Cc2c-1nc1cc3c(cc1c2CNCCc1ccccc1)OCO3 [Compound 5z] | 10 to 100 nM | 10 to 100 nM | 1 to 10 nM | 1 to 10 nM | 10 to 100 nM | 10 to 100 nM | 10 to 100 nM | 1 to 10 nM | 1 to 10 nM | 10 to 100 nM | 1 to 10 nM |
| CCCc1c2c(nc3cc4c(cc13)OCO4)-c1cc3c(c(=O)n1C2)COC(=O)[C@]3(O)CC [Compound 6a] | 1 to 10 nM | 1 to 10 nM | 0.1 to 1 nM | 1 to 10 nM | 1 to 10 nM | 1 to 10 nM | 1 to 10 nM | 1 to 10 nM | 0.1 to 1 nM | 1 to 10 nM | 0.1 to 1 nM |
| CC[C@@]1(O)C(=O)OCc2c1cc1n(c2=O)Cc2c-1nc1cc3c(cc1c2-c1ccccc1)OCO3 [Compound 6d] | 1 to 10 nM | 1 to 10 nM | 0.1 to 1 nM | 1 to 10 nM | 1 to 10 nM | 1 to 10 nM | 1 to 10 nM | 1 to 10 nM | 1 to 10 nM | 1 to 10 nM | 0.1 to 1 nM |
| CCc1c2c(nc3cc4c(cc13)OCO4)-c1cc3c(c(=O)n1C2)COC(=O)[C@]3(O)CC [Compound 6e] | 1 to 10 nM | 1 to 10 nM | 0.1 to 1 nM | 0.1 to 1 nM | 1 to 10 nM | 1 to 10 nM | 1 to 10 nM | 0.1 to 1 nM | 0.1 to 1 nM | 1 to 10 nM | 0.1 to 1 nM |
| CC[C@@]1(O)C(=O)OCc2c1cc1n(c2=O)Cc2c-1nc1cc3c(cc1c2CC(C)C)OCO3 [Compound 6f] | 1 to 10 nM | 1 to 10 nM | 1 to 10 nM | 1 to 10 nM | 1 to 10 nM | 1 to 10 nM | 10 to 100 nM | 1 to 10 nM | 1 to 10 nM | 1 to 10 nM | 1 to 10 nM |
| CCC(CC)Cc1c2c(nc3cc4c(cc13)OCO4)-c1cc3c(c(=O)n1C2)COC(=O)[C@]3(O)CC [Compound 6g] | 1 to 10 nM | 1 to 10 nM | 0.1 to 1 nM | 1 to 10 nM | 1 to 10 nM | 1 to 10 nM | 10 to 100 nM | 1 to 10 nM | 1 to 10 nM | 1 to 10 nM | 1 to 10 nM |
| CCCCCc1c2c(nc3cc4c(cc13)OCO4)-c1cc3c(c(=O)n1C2)COC(=O)[C@]3(O)CC [Compound 6h] | 10 to 100 nM | 1 to 10 nM | 0.1 to 1 nM | 0.1 to 1 nM | 1 to 10 nM | 1 to 10 nM | 10 to 100 nM | 1 to 10 nM | 1 to 10 nM | 10 to 100 nM | 0.1 to 1 nM |
| CC[C@@]1(O)C(=O)OCc2c1cc1n(c2=O)Cc2c-1nc1cc3c(cc1c2C1CCCC1)OCO3 [Compound 6i] | 1 to 10 nM | 1 to 10 nM | 0.1 to 1 nM | 1 to 10 nM | 1 to 10 nM | 1 to 10 nM | 10 to 100 nM | 1 to 10 nM | 1 to 10 nM | 1 to 10 nM | 0.1 to 1 nM |
| CC[C@@]1(O)C(=O)OCc2c1cc1n(c2=O)Cc2c-1nc1cc3c(cc1c2C1CCCCCC1)OCO3 [Compound 6j] | 1 to 10 nM | 1 to 10 nM | 0.1 to 1 nM | 1 to 10 nM | 1 to 10 nM | 1 to 10 nM | 10 to 100 nM | 1 to 10 nM | 1 to 10 nM | 1 to 10 nM | 1 to 10 nM |
